Laboratory results reported in patent publication US7226944B2, “Taxanes having a C7 carbonate substituent” (FSU Research Foundation, Inc., priority 2000, dated 2007).
Where two headings read alike, the source gives them in different places.

Experiments:
HCT116 = assay: In vitro cytotoxicity measured by the cell colony formation assay; format: cell-based; conditions: read-out: IN VITRO ID 50 (nm) HCT116
Procedure: Four hundred cells (HCT116) were plated in 60 mm Petri dishes containing 2.7 mL of medium (modified McCoy's 5a medium containing 10% fetal bovine serum and 100 units/mL penicillin and 100 µg/mL streptomycin). The cells were incubated in a CO2 incubator at 37° C. for 5 h for attachment to the bottom of Petri dishes. The compounds identified in Example 2 were made up fresh in medium at ten times the final concentration, and then 0.3 mL of this stock solution was added to the 2.7 mL of medium in the dish. The cells were then incubated with drugs for 72 h at 37° C. At the end of incubation the drug-containing media were decanted, the dishes were rinsed with 4 mL of Hank's Balance Salt Solution (HBSS), 5 mL of fresh medium was added, and the dishes were returned to the incubator for colony formation. The cell colonies were counted using a colony counter after incubation for 7 days.

[1] = HCT116 cells, drug concentration producing 50% inhibition of colony formation, 72 h with drug at 37° C., colonies counted after 7 days

Question: Which results are given for `COC(=O)O[C@H]1C[C@H]2OC[C@@]2(OC(C)=O)C2[C@H](OC(=O)c3ccccc3)[C@]3(O)C[C@H](OC(=O)[C@H](O)[C@@H](NC(=O)OC(C)(C)C)c4cccs4)C(C)=C([C@@H](O)C(=O)[C@@]21C)C3(C)C` (stereo partly drawn) [Compound 4262, 3′-Desphenyl-3′-(2-thienyl)-7-methoxycarbonyl taxotere]?
Answer: IC50 (HCT116; Homo sapiens, HCT-116): < 1 nM; melting point: 142.5 to 143 °C

Question: With `C/C=C/C(=O)N[C@@H](c1ccoc1)[C@@H](O)C(=O)O[C@H]1C[C@@]2(O)[C@@H](OC(=O)c3ccccc3)C3[C@](C)(C(=O)[C@H](O)C(=C1C)C2(C)C)[C@@H](OC(=O)OC)C[C@H]1OC[C@@]31OC(C)=O` (stereo partly drawn) [Compound 4877] as the molecule, how does the IC50 (HCT116; [1]) read?
Answer: < 1 nM

Question: With `C/C=C/C(=O)N[C@@H](c1ccoc1)[C@@H](O)C(=O)O[C@H]1C[C@@]2(O)[C@@H](OC(=O)c3ccccc3)C3[C@](C)(C(=O)[C@H](O)C(=C1C)C2(C)C)[C@@H](OC(=O)OCC)C[C@H]1OC[C@@]31OC(C)=O` (stereo partly drawn) [Compound 4904] as the molecule, how does the IC50 (HCT116; [1]) read?
Answer: < 10 nM

Question: With `C/C=C/C(=O)N[C@@H](c1ccsc1)[C@@H](O)C(=O)O[C@H]1C[C@@]2(O)[C@@H](OC(=O)c3ccccc3)C3[C@](C)(C(=O)[C@H](O)C(=C1C)C2(C)C)[C@@H](OC(=O)OC)C[C@H]1OC[C@@]31OC(C)=O` (stereo partly drawn) [Compound 4969] as the molecule, how does the IC50 (HCT116; [1]) read?
Answer: < 1 nM

Question: For `CCOC(=O)O[C@H]1C[C@H]2OC[C@@]2(OC(C)=O)C2[C@H](OC(=O)c3ccccc3)[C@]3(O)C[C@H](OC(=O)[C@H](O)[C@@H](NC(=O)OCC(C)C)c4ccsc4)C(C)=C([C@@H](O)C(=O)[C@@]21C)C3(C)C` (stereo partly drawn) [Compound 4979], which IC50 (HCT116; [1]) is on record?
Answer: < 10 nM

Question: With `C/C=C/C(=O)N[C@@H](c1ccsc1)[C@@H](O)C(=O)O[C@H]1C[C@@]2(O)[C@@H](OC(=O)c3ccccc3)C3[C@](C)(C(=O)[C@H](O)C(=C1C)C2(C)C)[C@@H](OC(=O)OCC)C[C@H]1OC[C@@]31OC(C)=O` (stereo partly drawn) [Compound 4999] as the molecule, how does the IC50 (HCT116; [1]) read?
Answer: < 1 nM

Question: With `CCOC(=O)O[C@H]1C[C@H]2OC[C@@]2(OC(C)=O)C2[C@H](OC(=O)c3ccccc3)[C@]3(O)C[C@H](OC(=O)[C@H](O)[C@@H](NC(=O)OC(C)(C)C)C4CC4)C(C)=C([C@@H](O)C(=O)[C@@]21C)C3(C)C` (stereo partly drawn) [Compound 5165] as the molecule, how does the IC50 (HCT116; [1]) read?
Answer: < 1 nM

Question: With `COC(=O)O[C@H]1C[C@H]2OC[C@@]2(OC(C)=O)C2[C@H](OC(=O)c3ccccc3)[C@]3(O)C[C@H](OC(=O)[C@H](O)[C@@H](NC(=O)OCC(C)C)C4CC4)C(C)=C([C@@H](O)C(=O)[C@@]21C)C3(C)C` (stereo partly drawn) [Compound 5211] as the molecule, how does the IC50 (HCT116; [1]) read?
Answer: < 10 nM

Question: For `CCOC(=O)O[C@H]1C[C@H]2OC[C@@]2(OC(C)=O)C2[C@H](OC(=O)c3ccccc3)[C@]3(O)C[C@H](OC(=O)[C@H](O)[C@@H](NC(=O)OCC(C)C)C4CC4)C(C)=C([C@@H](O)C(=O)[C@@]21C)C3(C)C` (stereo partly drawn) [Compound 5225], which IC50 (HCT116; [1]) is on record?
Answer: < 10 nM

Question: Which IC50 (HCT116; [1]) does the source give for `CC(=O)O[C@@]12CO[C@@H]1C[C@H](OC(=O)OCc1ccccc1)[C@@]1(C)C(=O)[C@H](O)C3=C(C)[C@@H](OC(=O)[C@H](O)[C@@H](NC(=O)OC(C)(C)C)c4ccco4)C[C@@](O)([C@@H](OC(=O)c4ccccc4)C12)C3(C)C` (stereo partly drawn) [Compound 5433] here?
Answer: < 1 nM

Question: Which IC50 (HCT116; [1]) does the source give for `CC(=O)O[C@@]12CO[C@@H]1C[C@H](OC(=O)OCc1ccccc1)[C@@]1(C)C(=O)[C@H](O)C3=C(C)[C@@H](OC(=O)[C@H](O)[C@@H](NC(=O)C=C(C)C)c4ccco4)C[C@@](O)([C@@H](OC(=O)c4ccccc4)C12)C3(C)C` (stereo partly drawn) [Compound 5466] here?
Answer: < 1 nM

Question: For `CCOC(=O)O[C@H]1C[C@H]2OC[C@@]2(OC(C)=O)C2[C@H](OC(=O)c3ccccc3)[C@]3(O)C[C@H](OC(=O)[C@H](O)[C@@H](NC(=O)C=C(C)C)c4ccco4)C(C)=C([C@@H](O)C(=O)[C@@]21C)C3(C)C` (stereo partly drawn) [Compound 6151], which IC50 (HCT116; [1]) is on record?
Answer: < 1 nM

Question: For `CCC(C)(C)OC(=O)N[C@@H](c1ccco1)[C@@H](O)C(=O)O[C@H]1C[C@@]2(O)[C@@H](OC(=O)c3ccccc3)C3[C@](C)(C(=O)[C@H](O)C(=C1C)C2(C)C)[C@@H](OC(=O)OCc1ccccc1)C[C@H]1OC[C@@]31OC(C)=O` (stereo partly drawn) [Compound 6246], which IC50 (HCT116; [1]) is on record?
Answer: < 1 nM

Question: With `C/C=C/C(=O)N[C@@H](c1cccs1)[C@@H](O)C(=O)O[C@H]1C[C@@]2(O)[C@@H](OC(=O)c3ccccc3)C3[C@](C)(C(=O)[C@H](O)C(=C1C)C2(C)C)[C@@H](OC(=O)OCc1ccccc1)C[C@H]1OC[C@@]31OC(C)=O` (stereo partly drawn) [Compound 6566] as the molecule, how does the IC50 (HCT116; [1]) read?
Answer: < 10 nM
